Results from US20100249383A1, “Novel Ligand Involved In The Transmigration Of Leukocytes Across the Endothelium and Uses Therefor” (The Regents of The University of California and The Burnham …, priority 2001, published 2010).

B1: annexin I: human annexin I, from neutrophil lysates or recombinant full length from E. coli (protein, UniProt P04083 2-346, looked up)
Annexin A1: AMVSEFLKQAWFIENEEQEYVQTVKSSKGGPGSAVSPYPTFNPSSDVAALHKAIMVKGVDEATIIDILTKRNNAQRQQIKAAYLQETGKPLDETLKKALTGHLEEVVLALLKTPAQFDADELRAAMKGLGTDEDTLIEILASRTNKEIRDINRVYREELKRDLAKDITSDTSGDFRNALLSLAKGDRSEDFGVNEDLADSDARALYEAGERRKGTDVNVFNTILTTRSYPQLRRVFQKYTKYSKHDMNKVLDLELKGDIEKCLTAIVKCATSKPAFFAEKLHQAMKGVGTRHKALIRIMVSRSEIDMNDIKAFYQKMYGISLCQAILDETKGDYEKILVALCGGN

test system: mAbGB3.1; test: Inhibition ELISA of mAbGB3.1 binding to bovine lung proteins / immobilized BSA neoglycoproteins; parameters: species or system mouse; conditions: at 1 to 5 mM
Protocol: Binding in the absence of inhibitor was defined as 100%. […] Binding at pH 7.0 was defined as 100% for each. […] Binding in the absence of inhibitor was defined as 100%.
In these ELISAs, 96-well plates were coated with 250 ng of BSA neoglycoproteins at incubated either for 6 h at room temperature, or 4 h at 37° C. Plates were washed and blocked with 3% BSA in PBS overnight, incubated with hybridoma culture supernatants or with purified IgG diluted in PBS containing 1% BSA and 0.05% Tween 20. Incubations were for 1-2 h at room temperature, or overnight at 4° C. The plates were then washed and incubated with alkaline phosphatase conjugated goat anti-mouse IgG, followed by development with p-nitrophenyl phosphate substrate. Absorbance was measured at 405 nm in an ELISA plate reader.
Briefly, 96-well plates were coated with 50 ng of bovine albumin (BSA) neoglycoproteins containing total bovine lung glycopeptides coupled to BSA using glutaraldehyde for 4 h at 37° C. The neoglycoproteins were prepared for immunization screening as described above.
Plates were washed and blocked with 3% BSA in phosphate-buffered saline (PBS) overnight at 4° C. […] The plates were then washed and incubated with alkaline phosphatase conjugated goat anti-mouse IgG, followed by development with p-nitrophenyl phosphate substrate. Absorbance was measured at 405 nm in an ELISA plate reader.

| Molecule | inhibition of mAbGB3.1 binding by glycosaminoglycan-like compounds |
| --- | --- |
| hyaluronic acid [hyaluronic acid (tetramer and octamer)] | do not inhibit binding |
| chondroitin sulfate | do not inhibit binding |
| N[C@H]1C(O)O[C@H](CO)[C@H](O)[C@@H]1O (stereo partly shown) [Chondrosarnine, chondrosamine] | do not inhibit binding |

same assay, conditions: low mM concentrations, pH 7.5; FIG. 2 Panel C

| inhibition of mAbGB3.1 reactivity by carboxylic acids | Molecule |
| --- | --- |
| inhibited | O=C(O)CCC(=O)O [succinate] |
| inhibited | O=C(O)CN(CCN(CC(=O)O)CC(=O)O)CC(=O)O [EDTA, ethylenediamine tetraacetic acid] |
| did not inhibit binding | O=C[C@H](O)[C@@H](O)[C@H](O)[C@H](O)C(=O)O [glucuronic acid] |
| did not inhibit binding | CC(O)C(=O)O (stereo not shown) [lactic acid] |
| did not inhibit binding | CC(=O)C(=O)O [pyruvic acid] |
| did not inhibit binding | O=C[C@H](O)[C@@H](O)[C@@H](O)[C@H](O)C(=O)O [galacturonic acid] |
| inhibited | O=C(O)CC(O)(CC(=O)O)C(=O)O [citrate] |
| inhibited | CC(=O)O [acetate] |

same assay, conditions: sulfated or phosphorylated sugars tested at or below 5 mM; data not shown

| effect on mAbGB3.1 reactivity in the ELISA assay | Molecule |
| --- | --- |
| unaffected | CC(=O)N[C@H]1C(OP(=O)(O)O)O[C@H](CO)[C@@H](O)[C@@H]1O (stereo partly shown) [GlcNAc-1-phosphate, glucose-N-acetyl-1-phosphate] |
| unaffected | O=P(O)(O)O[C@H]1O[C@H](CO)[C@@H](O)[C@H](O)[C@H]1O [Glc-1-phosphate, glucose-1-phosphate] |
| unaffected | O=C[C@H](O)[C@@H](O)[C@@H](O)[C@H](O)COS(=O)(=O)O [Gal-6-sulfate, galactose-6-sulfate] |
| unaffected | O=C[C@@H](O)[C@@H](O)[C@H](O)[C@H](O)COP(=O)(O)O [Man-6-phosphate, mannose-6-phosphate] |
| unaffected | O=C[C@H](O)[C@@H](O)[C@@H](O)[C@H](O)COP(=O)(O)O [Gal-6-phosphate, galactose-6-phosphate] |
| unaffected | O=C[C@H](O)[C@@H](O)[C@H](O)[C@H](O)COP(=O)(O)O [Glc-6-phosphate, glucose-6-phosphate] |
| unaffected | CC(=O)N[C@H]1C(O)O[C@H](COP(=O)(O)O)[C@@H](O)[C@@H]1O (stereo partly shown) [GlcNAc-6-phosphate, glucose-N-acetyl-6-phosphate] |
| unaffected | O=C[C@H](O)[C@@H](O)[C@H](O)[C@H](O)COS(=O)(=O)O [Glc-6-sulfate, glucose-6-sulfate] |

test system: [2-^3H]mannose-labeled CPAE glycoproteins; test: Precipitation of mannose-labeled glycoproteins and cross-binding; parameters: species or system bovine; conditions: primary binding
Protocol: Calf pulmonary artery endothelial cells (CPAE) cells were labeled with [2-^3H] mannose at 20 μCi/ml for 24 h in alpha MEM containing 10% fetal bovine serum. Cells were harvested by trypsinization, washed thrice in PBS, and lysed in PBS containing protease inhibitors and 0.5% NP40. Protein-rich lysates were prepared by ultrafiltration on YM10 membranes. Purified S100A8/A9 or annexin I proteins were immobilized on Affigel-10, and mixed with the labeled glycoproteins from CPAE cells in 10 mM HEPES buffer pH 7.5 containing 150 mM NaCl, 5 mM KCl, 1.2 mM MgCl2 and 1.3 mM CaCl2 after preclearing the lysates with BSA-Affigel 10. For immunoprecipitations using mAbGB3.1, lysates were precleared with normal mouse IgG-protein G beads and then incubated with Protein G coupled to mAbGB3.1 IgG in PBS. After overnight incubation at 4° C., the individual pellets were washed free of all unbound label until no more counts appeared in the washes, and the radioactivity associated with the pellets was measured.
For cross-binding, label associated with each pellet was first eluted using high salt (5 M MgCl2, which eluted >70% bound label). The eluates were repeatedly desalted on YM10 membranes and resuspended in the respective buffers. Label eluted from mAbGB3.1 gels was mixed with immobilized S100A8/A9 or annexin I and vice versa. Again, after overnight incubation at 4° C., the individual pellets were washed free of all unbound label and counted. […] In comparison, immobilized annexin I precipitated only about 2-3% of mannose labeled glycoproteins from endothelial cells (data not shown).

| % Bound Radioactivity (mean ± SD) | Molecule |
| --- | --- |
| 2-3% | B1 |

test system: 0.3 M asialo-COO^− glycopeptide-BSA neoglycoproteins; test: ELISA binding of purified proteins to immobilized carboxylated bovine lung glycans; conditions: FIG. 19 or data not shown
Protocol: In additional ELISA experiments, 96-well plates were coated with 0.3 M asialo-COO^− glycopeptide-BSA neoglycoproteins (250 ng/well) for 4 h at 37° C. (control wells had BSA alone) and blocked with 3% BSA in PBS overnight. The wells were then incubated with purified human annexin I or S100A8/A9 complexes (as appropriate), in 10 mM HUES buffer pH 7.5 containing 150 mM NaCl, 5 mM KCl, 1.2 mM MgCl2 and 1.3 mM CaCl2, in the absence or presence of varying concentrations of 0.3 M asialo-COO^− glycopeptides or 0.3 M asialo-CONHMe-glycopeptides for 2 h at room temperature. This was followed by incubation with anti-bovine annexin I antibody or anti-human S100A8 or anti-S100A9 for 2 h at room temperature. Wells were then washed and incubated with alkaline phosphatase conjugated goat anti-mouse IgG, followed by development with p-nitrophenyl phosphate substrate.
In this Example, experiments conducted to assess amphoterin binding to COO^− glycopeptide coated plates was assayed as described earlier for annexin I and S100 proteins. In addition, bound protein was detected using anti-amphoterin. mAbGB3.1 binding to sRAGE was assessed by first coating sRAGE on microtiter wells for 4 h at 37° C. After blocking with 3% BSA in PBS overnight, wells were incubated with mAbGB3.1 in the presence and absence of COO^−or CONHMe-glycopeptide and developed as described above.

| binding to immobilized carboxylated vs neutralized glycans | Molecule |
| --- | --- |
| remained constant | S100A1: other S100 protein |
| does not show specific binding | S100A8: recombinant S100A8 alone |
| remained constant | S100B: other S100 protein |
| bound | B1 |

test system: BSA coupled 0.3 M asialo-COO^− lung glycopeptides; test: Depletion of annexin I and S100 proteins from human neutrophil lysates by immobilized bovine lung glycopeptides; assay type: binding; conditions: immunoblot of supernatants; FIG. 15, FIG. 16
Protocol: In these assays, extracts from activated human neutrophils were first incubated with immobilized asialo-COO^− glycopeptides, and the residual proteins in the supernatants were analyzed by immunoblots. Since the S100A8/A9 complexes are typically destroyed during SDS-PAGE (i.e., break down into monomers), the intensity of staining in immunoblots was beyond the linearity of reaction for any quantitative evaluation.
In these experiments, 96-well plates were coated with 250 ng of BSA coupled 0.3 M asialo-COO^− lung glycopeptides for 4 h at 37° C. and blocked with 3% BSA in PBS overnight. Human neutrophil extracts were sequentially incubated in each of four wells for 30 min/well at 37° C. in leukocyte activation buffer (described above), in presence or absence of 200 μM 0.3 M asialo-COO^− glycopeptides or asialo-CONHMe-glycopeptides. After incubation, the supernatants from the incubation wells were collected and protein depletion was analyzed by immunoblotting using the respective antibodies. For detection of S100A8/A9 complexes, the proteins in the supernatants were stabilized by chemical cross-linking using bis-sulfosuccinimidyl suberate (BS^3) as known in the art (See, Staros, Biochem., 21:3590 [1982]). Briefly, the cross linker was added from a fresh 2 mM stock solution to neutrophil lysates obtained as described above, to a final concentration of 200 μM, and the mixture was incubated at room temperature for 30 min. Reactions were quenched by the addition of 1 M Tris to a final concentration of 10 mM and samples were stored at −80° C., until they were assayed. Cross-linked samples were incubated with 2-mercaptoethanol prior to separation on SDS-PAGE. Since crude lysates were used in the cross-linking, it is conceivable that non-specific cross-linking could occur. Therefore, only the bands that were still strongly stained with increasing dilution of both anti-S100A8 and anti-S100A9 were identified.

| Molecule | depletion from neutrophil extracts after binding to the glycopeptides |
| --- | --- |
| S100A8/A9 heterotrimer: (S100A8)2•S100A9 heterotrimer from human neutrophil extracts | depleted |
| S100A8 homodimer: cross-linked S100A8 homodimer from human neutrophil extracts | depleted |
| S100A8/A9 heterodimer: S100A8•S100A9 heterodimer from human neutrophil extracts | depleted |

same assay, conditions: intact (37 kDa) protein; FIG. 16 lane 2

| Molecule | depletion from the neutrophil preparations after binding to carboxylate-enriched glycopeptides |
| --- | --- |
| B1 | > 90% |
